Results reported in PubChem BioAssay (NCI).
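Abbreviation: GI50, concentration required for 50% inhibition of growth. TGI is the concentration that stops growth completely.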

Tests used:
Assay in all cases: growth of human tumour cells (NCI), 384-well format
[1] = system: RPMI-8226 leukemia
[2] = system: IGROV1 ovarian
[3] = system: OVCAR-5 ovarian
[4] = system: OVCAR-4 ovarian
[5] = system: SNB-19 CNS
[6] = system: MDA-MB-231 breast
[7] = system: COLO 205 colon
[8] = system: SF-539 CNS
[9] = system: NCI-H226 lung
[10] = system: CAKI-1 renal
[11] = system: HOP-62 NSCLC
[12] = system: HCC-2998 colon
[13] = system: MOLT-4 leukemia
[14] = system: NCI-H23 lung
[15] = system: NCI-H322M lung
[16] = system: A549 NSCLC
[17] = system: HL-60(TB) leukemia
[18] = system: CCRF-CEM leukemia
[19] = system: OVCAR-3 ovarian
[20] = system: UACC-62 melanoma
[21] = system: SF-295 CNS
[22] = system: U251 glioblastoma
[23] = system: A498 renal
[24] = system: SK-MEL-5 melanoma
[25] = system: SK-OV-3 ovarian
[26] = system: LOX IMVI melanoma
[27] = system: UO-31 renal
[28] = system: MALME-3M melanoma
[29] = system: NCI-H522 lung
[30] = system: SK-MEL-28 melanoma
[31] = system: SNB-75 CNS
[32] = system: HS 578T breast
[33] = system: TK-10 renal

`CN(Cc1cnc2nc(N)nc(N)c2n1)c1ccc(C(=O)N[C@@H](CCC(=O)O)C(=O)O)cc1` gave a GI50 [1] of 0.0173 µM, a TGI [1] of 0.0421 µM and a GI50 [2] of 0.0286 µM. For the same molecule, the TGI [3] was < 0.0154 µM, the TGI [4] was 0.0665 µM and the GI50 [5] was < 0.0197 µM. For the same molecule, the GI50 [6] was 0.263 µM, the TGI [6] was 0.68 µM and the GI50 [7] was 0.0513 µM. It also gave a TGI [7] of 95.9 µM, a TGI [8] of 13.6 µM and a GI50 [9] of 0.0289 µM. For the same molecule, the GI50 [10] was 0.0263 µM, the TGI [10] was 0.0738 µM and the GI50 [11] was 0.0375 µM. It also gave a TGI [11] of 0.123 µM, a GI50 [12] of 0.0391 µM and a TGI [13] of 0.0181 µM. For the same molecule, the GI50 [14] was 0.0304 µM, the TGI [14] was 0.308 µM and the GI50 [15] was < 0.0126 µM. For the same molecule, the TGI [15] was 0.0226 µM, the TGI [16] was 0.0178 µM and the TGI [17] was < 0.0142 µM. The TGI [18] was < 0.0113 µM, the GI50 [19] was < 0.0148 µM and the TGI [19] was 0.0276 µM. The GI50 [20] was 0.0189 µM, the GI50 [21] was < 0.0135 µM and the TGI [21] was < 0.0209 µM. The GI50 [22] was 0.0317 µM, the GI50 [23] was < 0.0188 µM and the TGI [23] was 0.232 µM. For the same molecule, the GI50 [24] was 0.13 µM, the TGI [24] was 87.3 µM and the GI50 [25] was 1.45 µM. It also gave a TGI [26] of 0.014 µM, a GI50 [27] of 0.0295 µM and a TGI [27] of 9.76 µM. For the same molecule, the GI50 [28] was < 0.0153 µM, the GI50 [29] was 0.032 µM and the TGI [29] was 0.543 µM. For the same molecule, the GI50 [30] was 0.0277 µM, the TGI [30] was 0.0607 µM and the GI50 [31] was < 0.0129 µM. The TGI [31] was < 0.0283 µM, the GI50 [32] was < 0.0151 µM and the TGI [32] was 0.0316 µM. It also gave a GI50 [33] of 0.0236 µM and a TGI [33] of 0.0523 µM.
